In assay [1] the test system is human Edg-1 receptors. Briefly: Intracellular calcium (FLIPR) assay, HTC cells expressing Edg-1. Format: cell-based. The following applies: Edg-1 relative to other Edg receptors, inhibition (Table 2). The protocol: (§1) The compounds were tested in HTC cells expressing human Edg-1 receptors. […] The compounds were tested in this recombinant system first, and subsequently tested in cell lines expressing Edg-1 (in addition to other Edg receptors).
(§2) […] receptors such as Edg-1, couple to calcium effector pathways, and result in increases in intracellular calcium following receptor activation (An, 1998, J. Cell Biochem. Supp 30-31:147-157). This biological response lends itself to a very efficient, high-throughput screen using a Fluorescence Imaging Plate Reader (FLIPR; Molecular Devices, Sunnyvale, Calif.). The FLIPR system is a real-time, cell-based assay system with continuous fluorescence detection using a cooled CCD camera. The FLIPR system was used to develop an Edg-1 receptor screen. Rat hepatoma cells stably expressing Edg-1/3i3 chimera or Edg-1 and Gqi were plated on 384-well plates and loaded with a calcium dye loading kit (Molecular Devices, Sunnyvale, Calif.) for 1 hour at room temperature. Cells were then placed on the FLIPR^384 (Molecular Devices, Sunnyvale, Calif.) and excited by an argon laser at 488 nm. The data for the entire 384-well plate was updated every second. An integrated robotic pipettor allowed for simultaneous compound addition into each individual well in the plate.

The target in another assay is T1, Edg-2 (Homo sapiens, UniProt Q92633).
T1 construct: expressed in transfected cells; host or cells: HTC rat hepatoma cells
In words: Intracellular calcium (FLIPR) assay, HTC cells expressing Edg-2. The following applies: Table 2; LPA-stimulated. Type of assay: cell-based.

The next assay addresses T2, Edg-3 (Homo sapiens, UniProt Q99500).
T2 construct: expressed in transfected cells; host or cells: HTC rat hepatoma cells
In words: Intracellular calcium (FLIPR) assay, HTC cells expressing Edg-3. Type of assay: cell-based. To be noted: Table 2; S1P-stimulated. In general terms: A change in cytosolic calcium serves as a functional read-out for many receptors and channels.

A further assay deals with Edg-4 (Homo sapiens, UniProt Q9HBW0). Briefly: Intracellular calcium (FLIPR) assay, HTC cells expressing Edg-4. Type of assay: cell-based. To be noted: Table 2; LPA-stimulated.
A further assay deals with T3, Edg-5 (Homo sapiens, UniProt O95136).
T3 construct: expressed in transfected cells; host or cells: HTC rat hepatoma cells
In words: Intracellular calcium (FLIPR) assay, HTC cells expressing Edg-5. The following applies: Table 2; S1P-stimulated. Type of assay: cell-based.

Another assay deals with T4, Edg-6 (Homo sapiens, UniProt O95977).
T4 construct: expressed in transfected cells; host or cells: HTC rat hepatoma cells
T4 sequence (O95977 1-384): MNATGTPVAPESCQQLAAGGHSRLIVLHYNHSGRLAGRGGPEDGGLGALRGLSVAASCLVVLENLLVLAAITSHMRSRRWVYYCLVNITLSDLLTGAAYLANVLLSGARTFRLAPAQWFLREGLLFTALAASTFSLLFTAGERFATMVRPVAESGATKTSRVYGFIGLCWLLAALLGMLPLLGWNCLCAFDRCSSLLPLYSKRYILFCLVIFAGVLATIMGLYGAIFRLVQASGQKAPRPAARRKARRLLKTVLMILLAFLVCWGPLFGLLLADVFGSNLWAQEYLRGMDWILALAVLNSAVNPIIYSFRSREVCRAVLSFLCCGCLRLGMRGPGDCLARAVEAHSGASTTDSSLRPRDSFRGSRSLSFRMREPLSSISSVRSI
In words: Intracellular calcium (FLIPR) assay, HTC cells expressing Edg-6. Format: cell-based. To be noted: Table 2; S1P-stimulated.

For a further assay, the target named is T5, Edg-7 (Homo sapiens, UniProt Q9UBY5).
T5 construct: expressed in transfected cells; host or cells: HTC rat hepatoma cells
T5 sequence (Q9UBY5 1-353): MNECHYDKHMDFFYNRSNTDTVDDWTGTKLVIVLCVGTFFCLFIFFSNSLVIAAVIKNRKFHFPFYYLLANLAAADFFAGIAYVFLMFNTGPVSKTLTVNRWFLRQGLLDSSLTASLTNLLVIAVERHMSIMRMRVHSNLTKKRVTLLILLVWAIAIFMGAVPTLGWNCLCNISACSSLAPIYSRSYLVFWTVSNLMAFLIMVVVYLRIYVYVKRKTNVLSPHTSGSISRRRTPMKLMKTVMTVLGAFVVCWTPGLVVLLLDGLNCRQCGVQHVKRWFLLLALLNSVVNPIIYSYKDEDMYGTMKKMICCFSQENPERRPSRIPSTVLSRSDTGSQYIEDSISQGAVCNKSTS
In words: Intracellular calcium (FLIPR) assay, HTC cells expressing Edg-7. To be noted: Table 2; LPA-stimulated. Format: cell-based.

For a further assay, the target named is T6, Edg-8 (Homo sapiens, UniProt Q9H228).
T6 construct: expressed in transfected cells; host or cells: HTC rat hepatoma cells
Briefly: Intracellular calcium (FLIPR) assay, HTC cells expressing Edg-8. Format: cell-based. The following applies: Table 2; S1P-stimulated.

The target of assay [2] is human Edg-1 receptors (Homo sapiens, UniProt P21453). In words: Intracellular calcium (FLIPR) assay, HTC cells expressing Edg-1. Format: cell-based. Also on record: Edg 1 IC50 μM; fused on or other part: in the chimera reading: the third intracellular loop (i3) of Edg-3 (S1PR3) in place of Edg-1's own. The procedure: as §1, §2
The subject of assay [3] is human umbilical vein endothelial cells. In words: Trans-matrigel chemotaxis / invasion assay with HUVECs (modified Boyden chamber). Format: cell-based. To be noted: HUVECs, trans-matrigel; FIG. 10. The procedure:
In addition to Edg-1, other Edg receptors are also implicated in S1P stimulated chemotaxis, including Edg-3 and Edg-6. To assess the relative roles of the Edg-1 receptors and Edg-3 receptors in S1P stimulated chemotaxis, the ability of S1P to evoke trans-matrigel chemotaxis was tested in the presence of the Edg-1 antagonist 101, the Edg-3 antagonist 301, and the combination of 101 and 301. These experiments were performed according to the migration and invasion assay protocols described in Section 7.12, below. The Edg-3 antagonist 301, 3-Methyl-2-phenyl-quinoline-4-carboxylic acid 4-fluoro-benzylamide, is extensively described in co-pending U.S. application Ser. No. 10/390,426, which is incorporated by reference in its entirety. 301 is identified as compound 101 in U.S. application Ser. No. 10/390,426. Further, 301 is commercially available from Specs (The Netherlands) as compound number AK-968/12971392.
(§3) S1P is a strong chemoattractant to human PBMCs. […] Several migration assays were performed to test this hypothesis and to determine the effect of Edg-1 agonists and antagonists on S1P mediated chemotaxis. The migration assays were performed according to the protocol described in Section 7.12, below. The results of theses assays are presented in FIG. 6, FIG. 7, FIG. 8, FIG. 9 and FIG. 13.
(§4) Cells were plated in a 24 well format using Fluoroblok filter insert plates ([…] pore size) or Fluoroblok matrigel coated filter insert plates (Becton Dickinson, San Diego, Calif.). The assay was a modified Boyden Chamber assay in which a cell suspension (1×10^5 cells/ml) was prepared in serum free medium and added to the top chamber. LPA or S1P (doses ranged from 0.1-10 μM in serum free medium) was added to the bottom chamber. Following a 20-24 hour incubation period, the number of cells migrating or invading into the lower chamber was quantitated by transferring the filter insert into a fresh 24-well plate containing 4 μg/ml calcein AM (Molecular Probes, Sunnyvale, Calif.) in Hank's Balanced Salt Solution and staining for one hour.
(§5) Detection was via fluorescent readout at 450 nm excitation/530 nm emission using a fluorimeter. The level of fluorescence correlated with cell number.

In assay [4] the test system is human peripheral blood mononuclear cells. Briefly: Migration of human peripheral blood mononuclear cells. Type of assay: cell-based. To be noted: chemoattractant; FIG. 9, 13. The protocol: as §3, §4, §5
Human PBMCs are isolated from the buffy coats of healthy donors from the Stanford Blood Center. […]

Another assay concerns murine CD4 T cells. Briefly: Murine CD4 T cell chemotactic response to exodus-2. Type of assay: cell-based. The protocol:
To assess this modulation and to test the effects of Edg-1 agonists and antagonists on this effect, murine CD4 T cells chemotactic responses to exodus-2 were tested in the presence of S1P and the Edg-1 agonist 104. These experiments were performed according to the migration and invasion assay protocols described in Section 7.12, below.
The effects of Edg-1 antagonists on S1P regulation of the chemotactic response to exodus-2 were also assessed. This experiment was performed according to the migration and invasion assay protocols described in Section 7.12, below. […] Thus, these Edg-1 antagonists can antagonize both aspects of the regulation by S1P of exodus-2-mediated chemotaxis.
as §4, §5

For the next assay, the system named is mouse T cells. In words: Mouse T cell migration in Transwell chambers with matrigel. The following applies: stimulant in bottom chamber; S1P at high concentrations; FIG. 14. Type of assay: cell-based. The procedure:
To further elucidate the role of the Edg-1 receptor in lymphocyte trafficking, migration of mouse T cells was analyzed in both in vitro and in vivo models. Migration of mouse T cells was first tested in Transwell chambers (Costar, Cambridge, Mass.) with polycarbonate fibers having a pore width of 8 μm, separated by a layer of matrigel. Stimulants S1P or exodus-2 were separately added to the bottom chamber. The effects of exodus-2 were tested alone, with S1P, and with S1P and Edg-1 antagonists 101 and 102.

Assay [5] relates to mouse splenic CD4 T cells. In words: Lymphocyte migration in mouse dorsal air-pouch model. Format: in vivo. To be noted: CD4 T cells treated ex vivo, given intraperitoneally, lavage after 24 hours; S1P 1 μM; FIG. 15. The protocol:
To test migration of mouse T cells in vivo, the ability of exodus-2 to attract mouse lymphocytes was assessed in the mouse dorsal air-pouch model. In these experiments, 0.5 ml 1 μM exodus-2 was introduced into a dorsal air-pouch produced by injecting 5 ml of filtered air subcutaneously. Mouse splenic CD4 T cells were fluorescently labeled with FM-DiI (Molecular Probes, Inc., Eugene, Oreg.), then treated with S1P (1 μM), 102, or 104. The treated CD4T cells were introduced into the peritoneal cavity. After 24 hours, lavage (1 ml) from the dorsal air pouch was assayed for fluorescence.

Where [6] appears, read: Table 1, Edg-1 modulators, read-out: IC50.

Read-outs that look alike come from different tables or passages of the source. Bounds are passed on as bounds.

T6 sequence (Q9H228 whole entry): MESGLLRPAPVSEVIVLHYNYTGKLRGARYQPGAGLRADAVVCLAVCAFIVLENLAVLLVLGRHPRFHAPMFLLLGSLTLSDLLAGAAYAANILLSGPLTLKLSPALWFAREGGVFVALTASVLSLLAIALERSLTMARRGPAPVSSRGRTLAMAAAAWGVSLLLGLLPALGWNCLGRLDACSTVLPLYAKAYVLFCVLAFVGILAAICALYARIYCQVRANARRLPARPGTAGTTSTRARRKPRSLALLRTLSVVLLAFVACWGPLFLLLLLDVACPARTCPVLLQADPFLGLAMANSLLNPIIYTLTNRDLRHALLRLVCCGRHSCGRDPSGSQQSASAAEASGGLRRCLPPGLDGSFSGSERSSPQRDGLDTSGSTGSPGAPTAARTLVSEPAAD
T2 sequence (Q99500 whole entry): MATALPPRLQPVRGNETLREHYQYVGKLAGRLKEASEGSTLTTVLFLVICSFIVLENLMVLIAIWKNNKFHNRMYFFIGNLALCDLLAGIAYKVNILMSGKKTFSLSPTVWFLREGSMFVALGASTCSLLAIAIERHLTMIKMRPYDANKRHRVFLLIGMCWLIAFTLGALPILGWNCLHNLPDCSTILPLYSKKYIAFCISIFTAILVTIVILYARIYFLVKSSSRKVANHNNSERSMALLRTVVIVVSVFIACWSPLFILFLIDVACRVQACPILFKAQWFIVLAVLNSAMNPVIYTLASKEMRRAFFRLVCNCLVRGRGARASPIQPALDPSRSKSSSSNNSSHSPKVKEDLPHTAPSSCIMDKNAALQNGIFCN
T1 sequence (Q92633 whole entry): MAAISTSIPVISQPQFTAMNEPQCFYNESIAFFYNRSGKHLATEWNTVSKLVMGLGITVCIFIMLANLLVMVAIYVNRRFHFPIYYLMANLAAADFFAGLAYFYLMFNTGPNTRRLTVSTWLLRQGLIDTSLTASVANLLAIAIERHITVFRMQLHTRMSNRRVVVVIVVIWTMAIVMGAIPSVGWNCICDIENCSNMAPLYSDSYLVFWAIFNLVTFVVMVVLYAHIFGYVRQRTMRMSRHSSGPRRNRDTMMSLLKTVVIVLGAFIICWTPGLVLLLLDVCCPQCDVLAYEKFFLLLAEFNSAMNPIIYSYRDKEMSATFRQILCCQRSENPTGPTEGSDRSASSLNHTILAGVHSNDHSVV
Chain of Edg-4 (Q9HBW0 1-340 limits assumed): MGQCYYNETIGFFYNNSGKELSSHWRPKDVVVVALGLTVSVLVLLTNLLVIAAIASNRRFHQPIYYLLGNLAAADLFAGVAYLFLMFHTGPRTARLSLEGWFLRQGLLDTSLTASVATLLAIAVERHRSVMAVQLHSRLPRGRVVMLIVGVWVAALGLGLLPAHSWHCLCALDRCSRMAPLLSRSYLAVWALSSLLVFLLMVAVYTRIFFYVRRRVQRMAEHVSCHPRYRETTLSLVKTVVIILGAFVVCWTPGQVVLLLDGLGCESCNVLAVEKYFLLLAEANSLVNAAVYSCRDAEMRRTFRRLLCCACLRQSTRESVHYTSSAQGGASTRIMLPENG
T3 sequence (O95136 whole entry): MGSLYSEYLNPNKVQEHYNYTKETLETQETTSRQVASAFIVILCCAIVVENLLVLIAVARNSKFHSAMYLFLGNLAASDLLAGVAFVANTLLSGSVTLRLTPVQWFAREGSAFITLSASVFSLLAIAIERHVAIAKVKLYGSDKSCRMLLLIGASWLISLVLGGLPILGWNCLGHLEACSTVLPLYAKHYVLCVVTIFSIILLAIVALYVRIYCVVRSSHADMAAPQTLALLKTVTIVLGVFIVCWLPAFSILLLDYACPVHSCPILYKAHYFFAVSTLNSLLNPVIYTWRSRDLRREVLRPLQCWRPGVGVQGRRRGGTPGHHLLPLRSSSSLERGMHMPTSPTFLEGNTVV

One may read the IC50 as the concentration needed to halve the response being measured. For the molecule `COc1cc2c(cc1OC)[C@H]1CN3CCc4cc(OC)c(OC)cc4[C@H]3CN1CC2` [Compound 103], the “Fold Selectivity” value in the assay on human Edg-1 receptors [1] is greater than 27.0 Fold. Also, the IC50 at Edg-2, at Edg-3, on Edg-4, at Edg-5, on Edg-6 and on Edg-7 was greater than 20 µM throughout. For the same molecule, the half-inhibitory concentration (IC50) at Edg-8 is greater than 20 µM; on human Edg-1 receptors [2] (Table 2, inhibition of S1P response, read-out: Edg 1 IC50), 0.74 µM.
As to `O=C(c1cccnc1)N1N=C(C(F)(F)F)CC1(O)c1ccc(Cl)cc1` (centres unmarked) [Compound 105], the IC50 on human Edg-1 receptors [2] (setting [6]) stood at 1.29 µM.
`CCc1ccc(C2=NN(C(=O)c3cccnc3)C(O)(C(F)(F)F)C2)cc1` (centres unmarked) [Compound 106]: at human Edg-1 receptors [2] (setting [6]), the IC50 was found to be 1.74 µM.
Still for that read-out and setting: then `O=C(c1cccnc1)N1N=C(c2ccccc2)CC1(O)C(F)(F)F` (centres unmarked) [Compound 107], with 3.51 µM; and `Nc1ccc(C(=O)N2N=C(c3ccccc3)CC2(O)C(F)(F)F)cc1` (centres unmarked) [Compound 108], with 3.56 µM.
Same read-out and setting: with `Nc1ccc(C(=O)N2N=C(c3ccc(F)cc3)CC2(O)C(F)(F)F)cc1` (centres unmarked) [Compound 109] the figure was 3.94 µM; with `Nc1ccc(C(=O)N2N=C(C(F)(F)F)CC2(O)c2ccc(Br)cc2)cc1` (centres unmarked) [Compound 110], 4.58 µM; with `O=C(c1ccccc1)N1N=C(c2ccccc2)CC1(O)C(F)(F)F` (centres unmarked) [Compound 111], 5.08 µM.
With `O=C(c1cccnc1)N1N=C(c2ccc(F)cc2)CC1(O)C(F)(F)F` (centres unmarked) [Compound 112], the IC50 on human Edg-1 receptors [2] (setting [6]) amounted to 5.92 µM.
For `O=C(c1ccccc1F)N1N=C(C(F)(F)F)CC1(O)c1ccc(Cl)cc1` (centres unmarked) [Compound 113], the half-inhibitory concentration (IC50) on human Edg-1 receptors [2] (setting [6]) was 6.02 µM.
As to `Cc1c(-c2ccccc2)nc2ccccc2c1C(=O)NCc1ccc(F)cc1` [Compound 301, 3-Methyl-2-phenyl-quinoline-4-carboxylic acid 4-fluoro-benzylamide, reference compound], the “inhibition of S1P-stimulated chemotaxis” value in assay [3] is given as “inhibit S1P-stimulated chemotaxis”.
Turning to `CCCCCCCCCCCCC/C=C/[C@@H](O)[C@@H](N)COP(=O)(O)O` [Compound S1P, sphingosine-1-phosphate, reference compound], the “migration of human peripheral blood mononuclear cells” value in assay [4] is “attracts human PMBCs in a dose dependent manner”. The “effect on chemotaxis of murine CD4 T cells to exodus-2” value with murine CD4 T cells (low and high concentrations desensitize, moderate stimulate, FIG. 11) is on record as “bell-shaped dose dependant response curve”. Further, in the assay with mouse T cells, the “stimulation of T cell migration by stimulant alone” value was “do not stimulate T cell migration”. In [5], the “migration of treated lymphocytes to exodus-2 in dorsal air-pouch” value is recorded as “desensitizes the lymphocytes to attraction by exodus-2”.
Consider `CCCCCCCCc1ccc(CCC(N)(CO)CO)cc1` [FTY720, reference compound], for which, in the assay on murine CD4 T cells (high concentrations of S1P, FIG. 12), the “effect on S1P-mediated desensitization of the chemotactic response to exodus-2” value is “reverse S1P-mediated desensitization”. The “effect on S1P-mediated stimulation of the chemotactic response to exodus-2” value in the assay on murine CD4 T cells (moderate concentrations of S1P, FIG. 12) is listed as “inhibit S1P-mediated stimulation”.

B1: exodus-2: cytokine, chemoattractant for lymphocytes (protein, UniProt O00585 24-134, looked up)
C-C motif chemokine 21: SDGGAQDCCLKYSQRKIPAKVVRSYRKQEPSLGCSIPAILFLPRKRSQAELCADPKELWVQQLMQHLDKTPSPQKPAQGCRKDRGASKTGKKGKGSKGCKRTERSQTPKGP
For the molecule B1, the “stimulation of T cell migration by stimulant alone” value with mouse T cells is recorded as “does stimulate T cell migration”.

The record behind these values is patent publication US20040147562A1, “Methods of treating conditions associated with an EDG-1 receptor” (priority 2002, published 2004).
